From PMC10178091, “The GRPR Antagonist [^99mTc]Tc-maSSS-PEG2-RM26 towards Phase I Clinical Trial: Kit Preparation, Characterization and Toxicity” (Diagnostics, 2023)
Read-outs that look alike come from different tables or passages of the source. Where a SMILES comes first, the peptide text is derived from it. [ ]: non-standard residue; d: D form. The star is where a group is joined. Sta = CC(C)C[C@H](N)[C@@H](O)CC(=O)O; Mercaptoacetyl = O=C(CS)*; AEEA = NCCOCCOCC(=O)O

Tests used:
GRPR on PC-3 cells = biological target: T1, GRPR on PC-3 cells (Homo sapiens, UniProt P30550); assay: In vitro binding specificity assay on PC-3 cells, with and without pre-blocking; conditions: 1 nM
T1 construct: endogenous in cells; host or cells: PC-3 cells
T1 sequence (P30550 whole entry): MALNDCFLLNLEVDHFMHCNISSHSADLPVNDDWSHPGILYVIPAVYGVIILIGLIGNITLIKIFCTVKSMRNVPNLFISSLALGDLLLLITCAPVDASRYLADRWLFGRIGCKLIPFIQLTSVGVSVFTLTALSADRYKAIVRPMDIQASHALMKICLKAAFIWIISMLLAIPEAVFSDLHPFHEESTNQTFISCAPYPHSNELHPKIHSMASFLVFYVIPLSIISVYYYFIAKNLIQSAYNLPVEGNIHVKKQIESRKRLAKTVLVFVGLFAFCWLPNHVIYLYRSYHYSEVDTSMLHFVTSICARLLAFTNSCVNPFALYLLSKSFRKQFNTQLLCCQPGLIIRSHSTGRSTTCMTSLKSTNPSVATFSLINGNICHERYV
Procedure: The radiolabeled peptide binding to GRPR was tested in PC-3 cells (GRPR +) by the addition of 1 nM of [^99mTc]Tc-maSSS-PEG2-RM26 to the cells (~10^6 cells, in triplicates), with and without pre-blocking of receptors, by the addition of 1 µM of NOTA-PEG2-RM26 (10 min at room temperature). After incubation at 37 °C for 1 h, the cells were treated with trypsin-EDTA, collected, and measured for their radioactivity content.
(§1) Randomly selected vials were stored at 4 °C at our laboratory for long-term testing. Within 18 months of storage, the vials were radiolabeled under the same conditions mentioned earlier. Additionally, the GRPR-binding in vitro was tested on a different batch of PC-3 cells, following the same protocol mentioned earlier. The in vivo GRPR-targeting properties of [^99mTc]Tc-maSSS-PEG2-RM26 were tested on PC-3 tumor-bearing Balb/c nu/nu mice (the cells (6 × 10^6 cells/mouse) were inoculated into the mice 4 weeks prior to the experiment). On the day of the experiment, when palpable tumors developed, a group of mice (n = 4) was injected with [^99mTc]Tc-maSSS-PEG2-RM26 (30 kBq/40 pmol) and another group (n = 4) was additionally co-injected with NOTA-PEG2-RM26 (5 nmol) to block GRPR. The mice were euthanized 1 h post-injection and the organs of interest were collected, weighed, and measured for their radioactivity content.

[1] = Ex vivo biodistribution / in vivo GRPR targeting in PC-3 tumor-bearing mice; set-up: species or system Balb/c nu/nu mice; conditions: mouse, total radioactivity, 1 h pi, n = 4; for tissue to tissue ratio at 1 h: 40 pmol, ± SD
Procedure: as §1

GRPR [2] = biological target: T2, GRPR (Homo sapiens, UniProt P30550); assay: as above; set-up: species or system Balb/c nu/nu mice; conditions: 1 h pi, kit stored 18 months, p < 0.001, n = 4
T2 construct: endogenous in cells; host or cells: PC-3 xenograft tumours in Balb/c nu/nu mice
T2 sequence (P30550 whole entry): as above
Procedure: as §1

GRPR [3] = assay: as above; set-up: species or system Balb/c nu/nu mice; conditions: 1 h pi, kit stored 18 months, p < 0.001, n = 4
Procedure: as §1

[4] = set-up: method as in PMID 36980517; conditions: phase I clinical study; cited from earlier work
GRPR [5] = biological target: GRPR; set-up: method as in PMID 33573232; conditions: cited from earlier work

Cell-associated radioactivity, non-blocked versus pre-blocked receptors (GRPR on PC-3 cells; freshly prepared kit, 1 h at 37 °C, pre-blocking with 1 µM NOTA-PEG2-RM26, p < 0.0001, n = 3): significant difference | Binding to non-blocked GRPR versus pre-blocked GRPR on PC-3 cells (GRPR on PC-3 cells; kit stored for 18 months, purified with Sep-Pak, pre-blocking with 1 µM NOTA-PEG2-RM26): significantly higher | tissue uptake at 1 h ([1]; Balb/c nu/nu, blood, PC-3 xenografts, 40 pmol / 30 kBq co-injected with 5 nmol NOTA-PEG2-RM26, average ± SD, read-out: Uptake in blood, blocked): 0.3 ± 0.4 %ID/g | tissue uptake at 1 h ([1]; Balb/c nu/nu, bone, PC-3 xenografts, 40 pmol / 30 kBq co-injected with 5 nmol NOTA-PEG2-RM26, average ± SD, read-out: Uptake in bone, blocked): 0.042 ± 0.009 %ID/g | tissue uptake at 1 h ([1]; Balb/c nu/nu, kidneys, PC-3 xenografts, 40 pmol / 30 kBq co-injected with 5 nmol NOTA-PEG2-RM26, average ± SD, read-out: Uptake in kidneys, blocked): 5 ± 0.6 %ID/g | tissue uptake at 1 h ([1]; Balb/c nu/nu, liver, PC-3 xenografts, 40 pmol / 30 kBq co-injected with 5 nmol NOTA-PEG2-RM26, average ± SD, read-out: Uptake in liver, blocked): 1.7 ± 0.4 %ID/g | tissue uptake at 1 h ([1]; Balb/c nu/nu, muscle, PC-3 xenografts, 40 pmol / 30 kBq co-injected with 5 nmol NOTA-PEG2-RM26, average ± SD, read-out: Uptake in muscle, blocked): 0.032 ± 0.008 %ID/g | tissue uptake at 1 h ([1]; Balb/c nu/nu, pancreas, PC-3 xenografts, 40 pmol / 30 kBq co-injected with 5 nmol NOTA-PEG2-RM26, average ± SD, read-out: Uptake in pancreas, blocked): 1.4 ± 0.1 %ID/g | tissue uptake at 1 h ([1]; Balb/c nu/nu, spleen, PC-3 xenografts, 40 pmol / 30 kBq co-injected with 5 nmol NOTA-PEG2-RM26, average ± SD, read-out: Uptake in spleen, blocked): 0.13 ± 0.06 %ID/g | tissue to tissue ratio at 1 h ([1]; Balb/c nu/nu, tumor and blood, PC-3 xenografts, read-out: Tumor-to-blood ratio, non-blocked group): 30 ± 4 | tissue to tissue ratio at 1 h ([1]; Balb/c nu/nu, tumor and bone, PC-3 xenografts, read-out: Tumor-to-bone ratio, non-blocked group): 78 ± 42 | tissue to tissue ratio at 1 h ([1]; Balb/c nu/nu, tumor and kidneys, PC-3 xenografts, read-out: Tumor-to-kidneys ratio, non-blocked group): 1.3 ± 0.2 | tissue to tissue ratio at 1 h ([1]; Balb/c nu/nu, tumor and liver, PC-3 xenografts, read-out: Tumor-to-liver ratio, non-blocked group): 2 ± 0.4 | tissue to tissue ratio at 1 h ([1]; Balb/c nu/nu, tumor and muscle, PC-3 xenografts, read-out: Tumor-to-muscle ratio, non-blocked group): 125 ± 50 | tissue to tissue ratio at 1 h ([1]; Balb/c nu/nu, tumor and pancreas, PC-3 xenografts, read-out: Tumor-to-pancreas ratio, non-blocked group): 1.1 ± 0.2 | tissue to tissue ratio at 1 h ([1]; Balb/c nu/nu, tumor and spleen, PC-3 xenografts, read-out: Tumor-to-spleen ratio, non-blocked group): 51 ± 18 | tissue uptake at 1 h ([1]; Balb/c nu/nu, tumor, PC-3 xenografts, 40 pmol / 30 kBq co-injected with 5 nmol NOTA-PEG2-RM26, average ± SD, read-out: Uptake in tumor, blocked): 0.89 ± 0.07 %ID/g | tissue uptake at 1 h ([1]; blood, Balb/c nu/nu mice with PC-3 xenografts, 40 pmol / 30 kBq, kit stored 18 months, average ± SD, read-out: Uptake in blood, non-blocked): 0.3 ± 0.2 %ID/g | tissue uptake at 1 h ([1]; bone, Balb/c nu/nu mice with PC-3 xenografts, 40 pmol / 30 kBq, kit stored 18 months, average ± SD, read-out: Uptake in bone, non-blocked): 0.09 ± 0.05 %ID/g | tissue uptake at 1 h ([1]; kidneys, Balb/c nu/nu mice with PC-3 xenografts, 40 pmol / 30 kBq, kit stored 18 months, average ± SD, read-out: Uptake in kidneys, non-blocked): 5 ± 0.4 %ID/g | tissue uptake at 1 h ([1]; liver, Balb/c nu/nu mice with PC-3 xenografts, 40 pmol / 30 kBq, kit stored 18 months, average ± SD, read-out: Uptake in liver, non-blocked): 2.9 ± 0.8 %ID/g | tissue uptake at 1 h ([1]; muscle, Balb/c nu/nu mice with PC-3 xenografts, 40 pmol / 30 kBq, kit stored 18 months, average ± SD, read-out: Uptake in muscle, non-blocked): 0.05 ± 0.02 %ID/g | tissue uptake at 1 h ([1]; pancreas, Balb/c nu/nu mice with PC-3 xenografts, 40 pmol / 30 kBq, kit stored 18 months, average ± SD, read-out: Uptake in pancreas, non-blocked): 6 ± 1 %ID/g | tissue uptake at 1 h ([1]; spleen, Balb/c nu/nu mice with PC-3 xenografts, 40 pmol / 30 kBq, kit stored 18 months, average ± SD, read-out: Uptake in spleen, non-blocked): 0.13 ± 0.05 %ID/g | tissue uptake at 1 h ([1]; tumor, Balb/c nu/nu mice with PC-3 xenografts, 40 pmol / 30 kBq, kit stored 18 months, average ± SD, read-out: Uptake in tumor, non-blocked): 6 ± 1 %ID/g | Difference in PC-3 tumor uptake between non-blocked and blocked groups (GRPR [2]): 6 fold
SMILES: CC(C)C[C@H](NC(=O)C[C@H](O)[C@H](CC(C)C)NC(=O)[C@H](Cc1c[nH]cn1)NC(=O)CNC(=O)[C@@H](NC(=O)[C@H](C)NC(=O)[C@H](Cc1c[nH]c2ccccc12)NC(=O)[C@H](CCC(N)=O)NC(=O)[C@@H](Cc1ccccc1)NC(=O)COCCOCCNC(=O)[C@H](CO)NC(=O)[C@H](CO)NC(=O)[C@H](CO)NC(=O)CS)C(C)C)C(N)=O [[^99mTc]Tc-maSSS-PEG2-RM26, metal not drawn] (Mercaptoacetyl-SSS[AEEA][dF]QWAVGH[Sta]L-NH2)
Difference in pancreatic uptake between non-blocked and blocked groups (GRPR [3]): 4 fold | Absorbed doses in healthy organs and tissues [4]: low absorbed doses | Tolerability of single injections [4]: well tolerated | Equilibrium dissociation constant (GRPR [5]): low nanomolar range
